Test system: immunoglobulin light chain protein WIL-FL T46L
Test: Differential scanning fluorimetry (thermal shift) assay
Assay type: binding
Conditions: temperature shift [Tm]compound-[Tm]vehicle, recombinant WIL-FL T46L

Row | SMILES | DSF (Table B) | DSF (Table A)
1 | Cc1cc(N2CC[C@](C)(c3ccccc3)C2)cn2nc(C34CC(CO)(CO3)C4C(=O)O)nc12 (stereo partly drawn) [Compound 575, 4-(hydroxymethyl)-1-(8-methyl-6-((r)-3-methyl-3-phenylpyrrolidin-1-yl)-[1,2,4]triazolo[1,5-a]pyridin-2-yl)-2-oxabicyclo[2.1.1]hexane-5-carboxylic acid] | ***** (>2.5° C.=*****) | –
2 | Cc1cc(N2CC[C@](C)(c3ccccc3)C2)cn2nc(C(=O)N3CC[C@@]4(CCN(C(=O)C56COC(C(=O)O)(C5)C6)C4)C3)nc12 [Compound 726] | ***** (>2.5° C.=*****) | –
3 | Cc1cc(N2CC[C@](C)(c3ccccc3)C2)cn2nc(C34CC(C(=O)N5CC6C(C5)C6C(=O)O)(CO3)C4)nc12 (stereo partly drawn) [Compound 445] | ***** (>2.5° C.=*****) | –
4 | Cc1cc(N2CC[C@](C)(c3ccccc3)C2)cn2nc(C(=O)N3CCC4(CCN(c5nc(C(=O)O)cs5)C4)C3)nc12 (stereo partly drawn) [Compound 218] | – | ***** (>2.5° C.=*****)
5 | COC(=O)[C@]1(C)CCN(C(=O)c2nc3c(C)cc(N4CC[C@](C)(c5ccccc5)C4)cn3n2)C1 [Compound 125] | – | ***** (>2.5° C.=*****)
6 | Cc1cc(N2CC[C@](C)(c3ccccc3)C2)cn2nc(C(=O)NC3CCC(c4cccc(C(=O)O)n4)CC3)nc12 (stereo partly drawn) [Compound 229] | – | ***** (>2.5° C.=*****)
7 | Cc1cc(N2CC[C@](C)(c3ccccc3)C2)cn2nc(C(=O)N[C@H]3CNC[C@@H]3C(=O)O)nc12 [Compound 134] | – | ***** (>2.5° C.=*****)
8 | COC(=O)c1n[nH]c(N2CCC3(CCN(C(=O)c4nc5c(C)cc(N6CC[C@](C)(c7ccccc7)C6)cn5n4)C3)C2)n1 (stereo partly drawn) [Compound 233] | – | ***** (>2.5° C.=*****)
9 | Cc1cc(N2CC[C@](C)(c3ccccc3)C2)cn2nc(C34CC(O)(CO3)C4)nc12 [Compound 381] | – | ***** (>2.5° C.=*****)
10 | Cc1cc(N2CC[C@](C)(c3ccccc3)C2)cn2nc(C(=O)N3CCC4(CCN(c5nccc(C(=O)O)n5)C4)C3)nc12 (stereo partly drawn) [Compound 716] | ***** (>2.5° C.=*****) | –
11 | Cc1cc(N2CC[C@](C)(c3ccccc3)C2)cn2nc(C(=O)NC3CN(c4cccc(C(=O)O)n4)CC4(COC4)C3)nc12 (stereo partly drawn) [Compound 699, 6-[6-[[8-methyl-6-[(3R)-3-methyl-3-phenyl-pyrrolidin-1-yl]-[1,2,4]triazolo[1,5-a]pyridine-2-carbonyl]amino]-2-oxa-8-azaspiro[3.5]nonan-8-yl]pyridine-2-carboxylic acid] | ***** (>2.5° C.=*****) | –
12 | Cc1cc(N2CC[C@](C)(c3ccccc3)C2)cn2nc(C(=O)N3CCOC(C(=O)O)C3)nc12 (stereo partly drawn) [Compound 176] | – | ***** (>2.5° C.=*****)
13 | CCC1(c2ccccc2)CN(c2cc(CO)c3nc(C(=O)NC4CCN(c5cccc(C(=O)O)n5)CC4)nn3c2)C1 [Compound 392] | – | ***** (>2.5° C.=*****)
14 | Cc1cc(N2CC3(CCC3c3cccc(F)c3)C2)cn2nc(C(=O)N3CC[C@@]4(CCN(c5cccc(C(=O)O)n5)C4)C3)nc12 (stereo partly drawn) [Compound 738] | ***** (>2.5° C.=*****) | –
15 | Cc1cc(N2CC[C@](C)(c3ccccc3)C2)cn2nc(C(=O)NC3CC(=O)N(c4ccnc(C(=O)O)c4)C3)nc12 (stereo partly drawn) [Compound 243] | – | ***** (>2.5° C.=*****)
16 | CCOC(=O)C1C2CN(C3CC4(CC(NC(=O)c5nc6c(C)cc(N7CC[C@](C)(c8ccccc8)C7)cn6n5)C4)C3)CC21 (stereo partly drawn) [Compound 378] | – | ***** (>2.5° C.=*****)
17 | Cc1cc(N2CC[C@](C)(c3ccccc3)C2)cn2nc(C(=O)NC34CC(CO)(C3)C4)nc12 [Compound 155] | – | ***** (>2.5° C.=*****)
18 | Cc1cc(N2CCC(C)(c3cccnc3)C2)cn2nc(C(=O)N3CC[C@@]4(CCN(c5cccc(C(=O)O)n5)C4)C3)nc12 (stereo partly drawn) [Compound 427] | – | *** (>1-1.5° C.=***)
19 | Cc1cc(N2CC[C@](C)(c3ccccc3)C2)cn2nc(C(=O)NC3CCC(c4ccnc(C(=O)O)c4)CC3)nc12 (stereo partly drawn) [Compound 226] | – | ***** (>2.5° C.=*****)
20 | Cc1cc(OC(C)c2ccc(F)c(Cl)c2)cn2nc(C(=O)N3CC[C@@]4(CCC(c5cccc(C(=O)O)n5)C4)C3)nc12 (stereo partly drawn) [Compound 412] | – | * (0-0.5° C.=*)
21 | Cc1cc(N2CCC(C)(c3ccccc3)C2=O)cn2nc(C(=O)N3CC[C@@]4(CCN(c5cccc(C(=O)O)n5)C4)C3)nc12 (stereo partly drawn) [Compound 386] | – | ** (>0.5-1 °C =**)
22 | Cc1cc(N2CC[C@](C)(c3ccccc3)C2)cn2nc(C34CC(CO3)C4NCC(C)(C)O)nc12 (stereo partly drawn) [Compound 528, 2-methyl-1-[[1-[8-methyl-6-[(3R)-3-methyl-3-phenyl-pyrrolidin-1-yl]-[1,2,4]triazolo[1,5-a]pyridin-2-yl]-2-oxabicyclo[2.1.1]hexan-5-yl]amino]propan-2-ol] | ***** (>2.5° C.=*****) | –
23 | CNC(=O)c1nc2c(C)cc(N3CC[C@@](C)(c4ccccc4)C3)cc2o1 [Compound 435] | – | ***** (>2.5° C.=*****)
24 | Cc1cc(N2CC[C@](C)(c3ccccc3)C2)cn2nc(C34COC(C3)C4C(N)=O)nc12 (stereo partly drawn) [Compound 69] | – | **** (>1.5-2.5° C.=****)

Row | SMILES | DSF (Table B) | DSF (Table A)
25 | Cc1cc(OC[C@H](C)c2ccccc2)cn2nc(C(=O)NC3CCN(c4ccnc(C(=O)O)c4)C3)nc12 (stereo partly drawn) [Compound 321] | – | ***** (>2.5° C.=*****)
26 | Cc1cc(N2CC(C)(C)C(C)(c3ccccc3)C2)cn2nc(C(=O)N3C[C@@H]4CN(c5cccc(C(=O)O)n5)C[C@@H]4C3)nc12 (stereo partly drawn) [Compound 298] | – | ** (>0.5-1 °C =**)
27 | Cc1cc(N2CCC(C)(O)C2)cn2nc(C(=O)N3CC4CN(c5cccc(C(=O)O)n5)CC4C3)nc12 (stereo not drawn) [Compound 295] | – | * (0-0.5° C.=*)
28 | Cc1cc(N2CC[C@](C)(c3ccccc3)C2)cn2nc(C34CC(C(=O)NC(C)(C)C(=O)O)(CO3)C4)nc12 [Compound 440, (R)-2-methyl-2-(1-(8-methyl-6-(3-methyl-3-phenylpyrrolidin-1-yl)-[1,2,4]triazolo[1,5-a]pyridin-2-yl)-2-oxabicyclo[2.1.1]hexane-4-carboxamido)propanoic acid] | ***** (>2.5° C.=*****) | –
29 | Cc1cc(N2CC[C@](C)(c3ccccc3)C2)cn2nc(C(=O)N3CCC4(CCN(c5ncno5)C4)C3)nc12 (stereo partly drawn) [Compound 253] | – | ***** (>2.5° C.=*****)
30 | Cc1nnc(CNC23COC(c4nc5c(C)cc(N6CC[C@](C)(c7ccccc7)C6)cn5n4)(C2)C3)[nH]1 [Compound 56] | – | ***** (>2.5° C.=*****)
31 | Cc1cc(N2CC[C@](C)(c3ccccc3)C2)cn2nc(C(=O)N3CCn4nc(-c5cccc(C(=O)O)n5)nc4C3)nc12 [Compound 404] | – | ***** (>2.5° C.=*****)
32 | CNC(=O)c1nc2c(C)cc(N3CCC(C)(c4ccccc4F)C3)cn2n1 (stereo not drawn) [Compound 425] | – | ***** (>2.5° C.=*****)
33 | Cc1cc(N2CC[C@](C)(c3ccccc3)C2)cn2nc(C(=O)NCC34COC(C(=O)O)(C3)C4)nc12 [Compound 209] | – | ***** (>2.5° C.=*****)
34 | Cc1cc(N2CC[C@](C)(c3ccccc3)C2)cn2nc(C(=O)N3CCC4(CCCC(C(=O)O)C4)C3)nc12 (stereo partly drawn) [Compound 606] | ***** (>2.5° C.=*****) | –
35 | CCS(=O)(=O)Nc1n[nH]c(C2C3(CNC(=O)CC(C)(C)C(=O)O)COC2(c2nc4c(C)cc(N5CC[C@](C)(c6ccccc6)C5)cn4n2)C3)n1 (stereo partly drawn) [Compound 547, 4-[[5-[3-(ethylsulfonylamino)-1H-1,2,4-triazol-5-yl]-1-[8-methyl-6-[(3R)-3-methyl-3-phenyl-pyrrolidin-1-yl]-[1,2,4]triazolo[1,5-a]pyridin-2-yl]-2-oxabicyclo[2.1.1]hexan-4-yl]methylamino]-2,2-dimethyl-4-oxo-butanoic acid] | ***** (>2.5° C.=*****) | –
36 | Cc1cc(N2CC[C@](C)(c3ccccc3)C2)cn2nc(C(=O)N3CCC4(CCN(c5cnnc(C(=O)O)c5)C4)C3)nc12 (stereo partly drawn) [Compound 730, 5-(7-(8-methyl-6-((R)-3-methyl-3-phenylpyrrolidin-1-yl)-[1,2,4]triazolo[1,5-a]pyridine-2-carbonyl)-2,7-diazaspiro[4.4]nonan-2-yl)pyridazine-3-carboxylic acid] | ***** (>2.5° C.=*****) | –
37 | Cc1cc(N2CC[C@](C)(c3ccccc3)C2)cn2nc(C(=O)N3CC4CN(c5cccc(C(=O)O)n5)CC(C3)O4)nc12 [Compound 287] | – | ***** (>2.5° C.=*****)
38 | CCC1(c2ccccc2)CN(c2cc(C)c3nc(C(=O)N4CCC5(CCN(c6cccc(C(=O)O)n6)C5)C4)nn3c2)C1 (stereo not drawn) [Compound 394] | – | ***** (>2.5° C.=*****)
39 | Cc1cc(N2CC[C@](C)(c3ccccc3)C2)cn2nc(C(=O)N3CCOCC34CN(c3cccc(C(=O)O)n3)C4)nc12 [Compound 259] | – | ***** (>2.5° C.=*****)
40 | COc1cc(N2CC[C@](C)(c3ccccc3)C2)cn2nc(C(=O)N3CC[C@@]4(CCN(c5cccc(C(=O)O)n5)C4)C3)nc12 [Compound 294] | – | ***** (>2.5° C.=*****)
41 | Cc1cc(N2CC[C@](C)(c3ccccc3)C2)cn2nc(C(=O)NC3(C)CCN(c4ccnc(C(=O)O)c4)CC3)nc12 [Compound 282] | – | ***** (>2.5° C.=*****)
42 | Cc1cc(N2CC[C@](C)(c3ccccc3)C2)cn2nc(C34CC(NC(=O)Cn5ncnc5C)(CO3)C4)nc12 [Compound 62] | – | ***** (>2.5° C.=*****)
43 | Cc1cc(N2CC[C@](C)(c3ccccc3)C2)cn2nc(C(N)=O)nc12 [Compound 137] | – | ***** (>2.5° C.=*****)
44 | Cc1cc(N2CC[C@](C)(c3ccccc3)C2)cn2nc(C(=O)NC3CC4(C3)CC(N3CCC(C(=O)O)CC3)C4)nc12 (stereo partly drawn) [Compound 599] | ***** (>2.5° C.=*****) | –
45 | Cc1cc(N2CC[C@](C)(c3ccccc3)C2)cn2nc(C34CC(CO3)C4CN3CCC(C(=O)O)CC3=O)nc12 (stereo partly drawn) [Compound 490] | ***** (>2.5° C.=*****) | –
46 | Cc1cc(N2CC[C@](C)(c3ccccc3)C2)cn2nc(C34CC(CO3)C4c3nc(NC(=O)c4cccc(C(=O)O)n4)n[nH]3)nc12 (stereo partly drawn) [Compound 549] | ***** (>2.5° C.=*****) | –
47 | Cc1cc(N2CC[C@](C)(c3ccccc3)C2)cn2nc(C(=O)NC3CC4(C3)CC(N3C[C@H](F)[C@@H](F)C3)C4)nc12 (stereo partly drawn) [Compound 363] | – | ***** (>2.5° C.=*****)
48 | Cc1cc(OC[C@H](C)c2ccccc2)cn2nc(C(=O)NCC(C)(C)O)nc12 [Compound 317] | – | ***** (>2.5° C.=*****)
